The source of these data is US20230149420A1, “ANTI-INFLAMMATORY IMMUNOENHANCER” (SCENT SCIENCE INTERNATIONAL INC., priority 2020, published 2023).

What all share (assay type): in vivo, C57/BL6 mice
Conditions in all cases: 200 μl of 1% solution i.p., blood 16 hr later, vs saline

In test [1] the test system is neutrophils in the whole blood cells. Briefly: ratio of neutrophils in whole blood cells, Siemens Advia 120 (Examples 12, 13). The method, then: About 3-month-old C57/BL6 mice were intraperitoneally injected with 200 μl of saline (control) or 1% solution of respective compounds (dissolved in saline). Blood was collected 16 hr later, and the ratio of neutrophils in the whole blood cells was measured using Siemens Advia 120.

Test [2] relates to neutrophils in the peripheral blood. Briefly: number of neutrophils in peripheral blood, Siemens Advia 120 (Examples 4, 5). Here is the method:
About 3-month-old C57/BL6 mice were intraperitoneally injected with 200 μl of saline (control) or 1% solution of respective compounds (dissolved in saline). Blood was collected 16 hr later, and the number of neutrophils in the peripheral blood was measured using Siemens Advia 120.

Test [3] relates to monocytes in the peripheral blood. Briefly: number of monocytes in peripheral blood, Siemens Advia 120 (Examples 6, 7). The method, then:
About 3-month-old C57/BL6 mice were intraperitoneally injected with 200 μl of saline (control) or 1% solution of respective compounds (dissolved in saline). Blood was collected 16 hr later, and the number of monocytes in the peripheral blood was measured using Siemens Advia 120.
About 3-month-old C57/BL6 mice were intraperitoneally injected with 200 μl of saline (control) or 1% allyl isothiocyanate solution (dissolved in saline). Blood was collected 16 hr later, and the number of monocytes in the peripheral blood was measured using Siemens Advia 120.

For test [4], the system named is monocytes in the whole blood cells. Briefly: ratio of monocytes in whole blood cells, Siemens Advia 120 (Examples 10, 11). Here is the method: About 3-month-old C57/BL6 mice were intraperitoneally injected with 200 μl of saline (control) or 1% solution of respective compounds (dissolved in saline). Blood was collected 16 hr later, and the ratio of monocytes in the whole blood cells was measured using Siemens Advia 120.
About 3-month-old C57/BL6 mice were intraperitoneally injected with 200 μl of saline (control) or 1% allyl isothiocyanate solution (dissolved in saline). Blood was collected 16 hr later, and the ratio of monocytes in the whole blood cells was measured using Siemens Advia 120.

The test system of test [5] is basophils in the whole blood cells. Briefly: ratio of basophils in whole blood cells, Siemens Advia 120 (Example 14). The method, then:
About 3-month-old C57/BL6 mice were intraperitoneally injected with 200 μl of saline (control) or 1% solution of respective compounds (dissolved in saline). Blood was collected 16 hr later, and the ratio of basophils in the whole blood cells was measured using Siemens Advia 120.

Consider `c1cscn1` [Thiazole], for which the “ratio of neutrophils in the whole blood cells” value (“ratio of neutrophils” below) in test [1] is “increases”.

`C=CCN=C=S` [Allyl isothiocyanate]: in test [2], the “neutrophils in the peripheral blood (number)” value (from here on “neutrophils … (number)”) was “increase”. Further, in test [3], the “number of monocytes in the peripheral blood” value is “increases”. The “ratio of neutrophils” value in test [1] was “increases”. Besides, the “ratio of monocytes in the whole blood cells” value (shortened to “ratio of monocytes”) in test [4] is “increases”.

With `Cc1c[nH]c(C)c1` [2,4-Dimethylpyrrole], the “ratio of neutrophils” value in test [1] is “increases”.

As for “2-Methyl-(3 or 5 or 6)-methylthio pyrazine [2-Methyl-(3 or 5 or 6)-methylthio pyrazine (mixture of isomers)]”, the “ratio of neutrophils” value in test [1] is on record as “increases”. Also, the “ratio of monocytes” value in test [4] is “increases”.

Consider `C=CCSC1=NCCS1` [2-(Allylthio)-2-thiazoline], for which the “number of monocytes in the peripheral blood” value in test [3] is on record as “increase”. The “ratio of monocytes” value in test [4] is recorded as “increases”.

For `CCc1cccs1` [2-Ethylthiophene], the “neutrophils … (number)” value in test [2] was “increase”.

`C1CCCNCC1` [Azepane]: in test [2], the “neutrophils … (number)” value is reported as “increase”. Further, in test [1], the “ratio of neutrophils” value is listed as “increases”. Besides, the “ratio of monocytes” value in test [4] was “increases”.

As for `CC(=O)c1cc(C)sc1C` [3-Acetyl-2,5-dimethylthiophene], the “ratio of basophils in the whole blood cells” value (from here on “ratio of basophils”) in test [5] was “increases”. The “neutrophils … (number)” value in test [2] was “increase”. The “ratio of neutrophils” value in test [1] was “increases”. Besides, in test [4], the “ratio of monocytes” value was “increases”.

Turning to `Cc1nccs1` [2-Methylthiazole], the “ratio of basophils” value in test [5] was “increases”. For the same compound, the “ratio of neutrophils” value in test [1] is “increases”.

Regarding `CC(=O)c1cccn1C` [2-Acetyl-1-methylpyrrole], the “neutrophils … (number)” value in test [2] is “increase”. The “ratio of neutrophils” value in test [1] is given as “increases”.

Take `CSC1CSC=N1` (centres unmarked) [4-(Methylthio)-2-thiazoline]: in test [2], the “neutrophils … (number)” value was “increase”. Also, the “ratio of neutrophils” value in test [1] is given as “increases”. Further, the “ratio of monocytes” value in test [4] was “increases”.

On to `C=CCCCN=C=S` [4-Pentenyl Isothiocyanate], for which the “neutrophils … (number)” value in test [2] is listed as “increase”. Moreover, the “ratio of neutrophils” value in test [1] was “increases”.

For the compound `CC(=O)c1cccnc1` [3-Acetylpyridine], the “neutrophils … (number)” value in test [2] was “increase”. In addition, the “ratio of neutrophils” value in test [1] was “increases”.

As to `CCOc1nccs1` [2-Ethoxythiazole], the “neutrophils … (number)” value in test [2] is recorded as “increase”. Also, the “ratio of neutrophils” value in test [1] is given as “increases”. Moreover, in test [4], the “ratio of monocytes” value is recorded as “increases”.

Turning to `O=C1CSC(=O)N1` [Thiazolidine-2,4-dione], the “neutrophils … (number)” value in test [2] was “increase”.

As for `Clc1ccsc1` [3-Chlorothiophene], in test [5], the “ratio of basophils” value is reported as “increases”. Moreover, in test [2], the “neutrophils … (number)” value is “increase”. In test [1], the “ratio of neutrophils” value is on record as “increases”. Also, the “ratio of monocytes” value in test [4] was “increases”.

As for `CSC1=NCCS1` [2-(Methylthio)-2-thiazoline], the “neutrophils … (number)” value in test [2] is “increase”. The “ratio of neutrophils” value in test [1] is recorded as “increases”.

Consider `S=C=NCc1ccccc1` [Benzyl isothiocyanate], for which the “neutrophils … (number)” value in test [2] was “increase”. Also, the “ratio of neutrophils” value in test [1] is given as “increases”.

Take `C1CSCCN1` [Thiomorpholine]: the “ratio of monocytes” value in test [4] was “increases”.

Take `CSc1nc2ccccc2s1` [2-(Methylthio)benzothiazole]: in test [2], the “neutrophils … (number)” value was “increase”. Besides, the “ratio of neutrophils” value in test [1] is reported as “increases”.

Consider `CC(=O)c1ccc[nH]1` [2-Acetylpyrrole], for which the “neutrophils … (number)” value in test [2] is given as “increase”. Also, the “ratio of neutrophils” value in test [1] is “increases”.

With `CCCCCCc1cccs1` [2-Hexylthiophene], the “neutrophils … (number)” value in test [2] is on record as “increase”. Moreover, the “ratio of neutrophils” value in test [1] is “increases”.

Turning to `Cc1ccsc1` [3-Methylthiophene], the “ratio of basophils” value in test [5] is on record as “increases”.

Consider `Cc1nc(C(C)(C)C)cs1` [4-tert-Butyl-2-methylthiazole], for which, in test [2], the “neutrophils … (number)” value is “increase”.

As to `CC(C)N=C=S` [Isopropyl isothiocyanate], the “neutrophils … (number)” value in test [2] is “increase”.

Consider `CC(=O)c1nccs1` [2-Acetylthiazole], for which the “ratio of basophils” value in test [5] was “increases”. For the same compound, the “ratio of neutrophils” value in test [1] is listed as “increases”.

Regarding `C=C(C)CN=C=S` [Methallyl isothiocyanate], the “neutrophils … (number)” value in test [2] is given as “increase”. Further, the “ratio of neutrophils” value in test [1] is given as “increases”.

In the case of `CSCCCN=C=S` [3-(Methylthio)propyl isothiocyanate], in test [2], the “neutrophils … (number)” value was “increase”.

As for `Clc1nccs1` [2-Chlorothiazole], the “ratio of basophils” value in test [5] is recorded as “increases”. Moreover, the “ratio of neutrophils” value in test [1] is “increases”.

Turning to `CCc1ccc[nH]1` [2-Ethylpyrrole], the “ratio of basophils” value in test [5] was “increases”. In addition, the “ratio of neutrophils” value in test [1] was “increases”.

For the compound `CCc1nccnc1CC` [2,3-Diethylpyrazine], the “neutrophils … (number)” value in test [2] is given as “increase”. The “ratio of neutrophils” value in test [1] is “increases”.

Consider `CC1NCCSC1C` (centres unmarked) [2,3-Dimethylthiomorpholine], for which, in test [4], the “ratio of monocytes” value is given as “increases”.

For the compound `CC1(C)NCCS1` [2,2-Dimethylthiazolidine], in test [5], the “ratio of basophils” value was “increases”. Moreover, the “ratio of neutrophils” value in test [1] is listed as “increases”.

On to `c1coc(Cn2cccc2)c1` [1-Furfurylpyrrole], for which, in test [1], the “ratio of neutrophils” value was “increases”.

In the case of `O=C1CSc2ccccc2N1` [2H-1,4-benzothiazin-3(4H)one], the “neutrophils … (number)” value in test [2] is “increase”. Further, the “ratio of neutrophils” value in test [1] was “increases”.

Regarding `CC1CNCCS1` (centres unmarked) [2-Methylthiomorpholine], the “neutrophils … (number)” value in test [2] is “increase”. In addition, the “ratio of neutrophils” value in test [1] is “increases”.

As to `CC(C)Cc1nccs1` [2-Isobutylthiazole], in test [1], the “ratio of neutrophils” value is given as “increases”.

In the case of `Cc1cccs1` [2-Methylthiophene], in test [1], the “ratio of neutrophils” value is recorded as “increases”.

In the case of `Cc1ncsc1C` [4,5-Dimethylthiazole], the “neutrophils … (number)” value in test [2] is “increase”. Further, the “ratio of neutrophils” value in test [1] is recorded as “increases”. For the same compound, in test [4], the “ratio of monocytes” value is “increases”.

Consider `Cc1cc[nH]c1` [3-Methylpyrrole], for which, in test [1], the “ratio of neutrophils” value is listed as “increases”.

Consider `CC(=O)c1cc(C)oc1C` [3-Acetyl-2,5-dimethylfuran], for which the “ratio of basophils” value in test [5] is recorded as “increases”.

Turning to `CC1=NC(CC(C)C)SC1C` (centres unmarked) [2-Isobutyl-4,5-dimethyl-3-thiazoline], the “neutrophils … (number)” value in test [2] was “increase”.

Consider `CCC(=O)c1cccs1` [2-Propionyl thiophene], for which the “ratio of neutrophils” value in test [1] is recorded as “increases”.

As for `CCc1ccco1` [2-Ethylfuran], the “ratio of basophils” value in test [5] is given as “increases”.

Turning to `CC(=O)c1sc(C)nc1C` [5-Acetyl-2,4-dimethylthiazole], the “ratio of basophils” value in test [5] was “increases”. The “neutrophils … (number)” value in test [2] is given as “increase”. The “ratio of neutrophils” value in test [1] is given as “increases”.

For the compound `Cc1nc(C)c(C)s1` [2,4,5-Trimethylthiazole], the “ratio of neutrophils” value in test [1] is on record as “increases”.

With `CCc1nccnc1C(C)=O` [2-Acetyl-3-ethylpyrazine], in test [5], the “ratio of basophils” value is listed as “increases”. Also, in test [1], the “ratio of neutrophils” value was “increases”. For the same compound, the “ratio of monocytes” value in test [4] is on record as “increases”.

With `c1ccc2sccc2c1` [Benzothiophene], the “neutrophils … (number)” value in test [2] is “increase”. For the same compound, in test [1], the “ratio of neutrophils” value is “increases”.

For `Cc1cc2ccccc2[nH]1` [2-Methylindole], in test [4], the “ratio of monocytes” value is recorded as “increases”.

For `Cc1csc(C(C)C)n1` [2-Isopropyl-4-methylthiazole], in test [5], the “ratio of basophils” value was “increases”. For the same compound, the “ratio of neutrophils” value in test [1] is listed as “increases”.
